Measured values from the supplement of paper PMC10307832.

Tests used:
Assay in all cases: relative viability (nuclei count vs DMSO), 5 days (fraction); higher = more cells survive
Carboplatin + Tozasertib = compound: C1CC(C1)(C(=O)O)C(=O)O.[NH2-].[NH2-].[Pt+2] [Carboplatin] + Cc1cc(Nc2cc(N3CCN(C)CC3)nc(Sc3ccc(NC(=O)C4CC4)cc3)n2)n[nH]1 [Tozasertib] (partner 0.1 µM)
Method in brief: (§1)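 After 5 days of treatment, lung cancer cells in 1536-well plates were fixed and stained in a single step (final 0.05% Triton X-100, 1% formaldehyde, 1 ug/ml Hoechst) and their nuclei counted on 4× images. Treatment had been applied by pin tool the day after seeding as one drug alone or as a fixed anchor-drug dose with five library-drug doses (not always all listed) in √10 steps. Relative viability is the nuclei count of treated wells divided by that of vehicle wells, and values are medians of duplicate plates.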

Carboplatin + Foretinib = compound: C1CC(C1)(C(=O)O)C(=O)O.[NH2-].[NH2-].[Pt+2] [Carboplatin] + COc1cc2c(Oc3ccc(NC(=O)C4(C(=O)Nc5ccc(F)cc5)CC4)cc3F)ccnc2cc1OCCCN1CCOCC1 [Foretinib] (partner 0.25 µM)
Method in brief: as §1

Carboplatin + Trametinib = compound: C1CC(C1)(C(=O)O)C(=O)O.[NH2-].[NH2-].[Pt+2] [Carboplatin] + CC(=O)Nc1cccc(-n2c(=O)n(C3CC3)c(=O)c3c(Nc4ccc(I)cc4F)n(C)c(=O)c(C)c32)c1 [Trametinib] (partner 0.02 µM)
Method in brief: as §1

MLN4924 + Foretinib = compound: NS(=O)(=O)OC[C@@H]1C[C@@H](n2ccc3c(N[C@H]4CCc5ccccc54)ncnc32)C[C@@H]1O [MLN4924] + COc1cc2c(Oc3ccc(NC(=O)C4(C(=O)Nc5ccc(F)cc5)CC4)cc3F)ccnc2cc1OCCCN1CCOCC1 [Foretinib] (partner 0.25 µM)
Method in brief: as §1

Row | Cell Line | relative viability (Carboplatin + Tozasertib; first compound 0.08 µM) | relative viability (Carboplatin + Tozasertib; first compound 0.253 µM) | relative viability (Carboplatin + Tozasertib; first compound 0.8 µM) | relative viability (Carboplatin + Tozasertib; first compound 2.53 µM) | relative viability (Carboplatin + Tozasertib; first compound 8 µM) | relative viability (Carboplatin + Foretinib; first compound 0.08 µM) | relative viability (Carboplatin + Foretinib; first compound 0.253 µM) | relative viability (Carboplatin + Foretinib; first compound 0.8 µM) | relative viability (Carboplatin + Foretinib; first compound 2.53 µM) | relative viability (Carboplatin + Foretinib; first compound 8 µM) | relative viability (Carboplatin + Trametinib; first compound 0.08 µM) | relative viability (Carboplatin + Trametinib; first compound 0.253 µM) | relative viability (Carboplatin + Trametinib; first compound 0.8 µM) | relative viability (Carboplatin + Trametinib; first compound 2.53 µM) | relative viability (Carboplatin + Trametinib; first compound 8 µM) | relative viability (MLN4924 + Foretinib; first compound 0.04 µM) | relative viability (MLN4924 + Foretinib; first compound 0.1265 µM) | relative viability (MLN4924 + Foretinib; first compound 0.4 µM) | relative viability (MLN4924 + Foretinib; first compound 1.265 µM) | relative viability (MLN4924 + Foretinib; first compound 4 µM)
1 | NCI-H322M | 0.534 | 0.532 | 0.56 | 0.481 | 0.479 | 1.12 | 0.943 | 0.895 | 0.861 | 0.77 | 0.543 | 0.488 | 0.537 | 0.552 | 0.525 | 1.12 | 1.22 | 0.801 | 0.284 | 0.357
2 | NCI-H2085 | 0.899 | 0.875 | 0.727 | 0.902 | 0.788 | 1.05 | 0.933 | 1.1 | 0.899 | 0.691 | 0.498 | 0.558 | 0.512 | 0.518 | 0.527 | 1.04 | 0.855 | 0.809 | 0.655 | 0.401
3 | PC-3 [JPC-3] | 0.863 | 0.877 | 0.863 | 0.853 | 0.765 | 1.08 | 1.03 | 1 | 1.05 | 0.933 | 0.781 | 0.67 | 0.628 | 0.616 | 0.65 | 1.05 | 0.976 | 0.688 | 0.375 | 0.293
4 | NCI-H1355 | 0.578 | 0.616 | 0.601 | 0.489 | 0.55 | 0.979 | 0.994 | 1.02 | 0.956 | 0.895 | 0.45 | 0.438 | 0.474 | 0.403 | 0.367 | 0.943 | 0.91 | 0.889 | 0.472 | 0.201
5 | NCI-H1650 | 0.473 | 0.342 | 0.427 | 0.348 | 0.373 | 1.51 | 1.25 | 0.986 | 0.982 | 0.779 | 0.623 | 0.585 | 0.573 | 0.522 | 0.389 | 0.92 | 0.951 | 0.325 | 0.217 | 0.19
6 | NCI-H838 | 0.296 | 0.28 | 0.254 | 0.273 | 0.279 | 1.16 | 1.06 | 0.934 | 0.931 | 0.669 | 0.558 | 0.519 | 0.536 | 0.515 | 0.541 | 0.684 | 0.503 | 0.22 | 0.174 | 0.16
7 | NCI-H1755 | 0.57 | 0.587 | 0.543 | 0.535 | 0.484 | 1.01 | 0.897 | 0.899 | 0.929 | 0.86 | 0.823 | 0.78 | 0.752 | 0.82 | 0.7 | 0.979 | 0.804 | 0.421 | 0.243 | 0.184
8 | NCI-H1651 | 0.89 | 0.668 | 0.593 | 0.508 | 0.305 | 0.791 | 0.827 | 0.822 | 0.795 | 0.413 | 0.851 | 0.77 | 0.826 | 0.771 | 0.711 | 0.74 | 0.754 | 0.656 | 0.436 | 0.173
9 | NCI-H650 | 0.768 | 0.766 | 0.638 | 0.661 | 0.453 | 1.01 | 1.14 | 0.941 | 0.91 | 0.614 | 1.01 | 1.08 | 1 | 0.849 | 0.818 | 0.863 | 0.499 | 0.341 | 0.197 | 0.191
10 | LK-2 | 0.16 | 0.168 | 0.184 | 0.163 | 0.137 | 1.46 | 1.24 | 1.17 | 1.01 | 1.26 | 0.772 | 0.973 | 0.624 | 0.58 | 0.846 | 1.35 | 0.676 | 0.621 | 0.265 | 0.222
11 | HCC-366 | 0.13 | 0.139 | 0.111 | 0.1 | 0.0814 | 0.91 | 0.877 | 0.957 | 0.918 | 0.759 | 0.406 | 0.43 | 0.372 | 0.269 | 0.179 | 0.907 | 0.975 | 0.925 | 0.447 | 0.0537
12 | PC-14 | 0.553 | 0.582 | 0.443 | 0.314 | 0.202 | 0.945 | 0.885 | 0.942 | 0.905 | 0.694 | 0.785 | 0.751 | 0.692 | 0.407 | 0.14 | 1.1 | 0.852 | 0.43 | 0.174 | 0.139
13 | ChaGo-K-1 | 0.231 | 0.224 | 0.215 | 0.213 | 0.192 | 0.872 | 0.993 | 0.835 | 0.745 | 0.579 | 0.857 | 0.917 | 0.831 | 0.717 | 0.546 | 0.785 | 0.503 | 0.336 | 0.244 | 0.22
14 | NCI-H441 | 0.746 | 0.687 | 0.508 | 0.454 | 0.469 | 0.929 | 0.971 | 0.744 | 1.01 | 0.915 | 0.556 | 0.448 | 0.479 | 0.467 | 0.371 | 0.923 | 0.79 | 0.515 | 0.238 | 0.183
15 | NCI-H1395 | 0.721 | 0.733 | 0.65 | 0.646 | 0.566 | 1.03 | 1.03 | 0.805 | 0.709 | 0.726 | 1.05 | 1.03 | 1.01 | 0.742 | 0.618 | 0.951 | 0.818 | 0.538 | 0.41 | 0.362
16 | NCI-H661 | 0.371 | 0.336 | 0.33 | 0.301 | 0.348 | 1.01 | 0.982 | 0.984 | 1 | 0.842 | 0.58 | 0.547 | 0.591 | 0.554 | 0.539 | 0.902 | 0.776 | 0.67 | 0.393 | 0.399
